Literature values in US7842730B2, “Medical emulsion of perfluororganic compounds and method for the production thereof” (priority 2004, dated 2010).

Tests used:
[1] = 37° C.
[2] = for P, vapor pressure: 37°; for Vapor pressure: 37° C., Table 3
[3] = for Tcritical (critical solution temperature in hexane): Table 1; for Critical solution temperature, (Tcritical): Table 3

Row | P, vapor pressure [2] | Vapor pressure [2] | Tcritical (critical solution temperature in hexane) [3] | Critical solution temperature, (Tcritical) [3] | Compound | Oxygen solubility [1] | t1/2 (elimination from the organism)
1 | – | 1.5 mm QS | – | 7 °C | FC(F)(F)C(F)(F)C(F)(F)C(F)(F)C(F)(F)C(F)(F)C(F)(F)C(F)(F)C(F)(F)C(F)(F)Br [PFDB, Perfluorodecylbromide] | – | –
2 | 33 mm QS | – | 13 °C | – | C1CCC2CCCC2C1 (stereo not drawn) [bicyclo[4.3.0]nonane] | – | –
3 | 2 mm QS | – | 24 °C | – | C1CC2CCCC3CCC(C1)C23 (stereo not drawn) [decahydroacenaphthene] | – | –
4 | 19 mm QS | – | 35 °C | – | CCCN1CCCCC1C (stereo not drawn) [1-propyl-2-methylpiperidine] | – | –
5 | 17 mm QS | 18.0 mm QS | 43 °C | 44 °C | FC(F)(F)C(F)(F)C(F)(F)N(C(F)(F)C(F)(F)C(F)(F)F)C(F)(F)C(F)(F)C(F)(F)F [PFTPA, perfluorotripropylamine] | 45 ml/100 ml (vol.-%) | –
6 | 2 mm QS | – | 59 °C | – | CCCCCCOCCCCCC [dihexylether] | – | –
7 | – | 10.5 mm QS | – | −20 °C | FC(F)(F)C(F)(F)C(F)(F)C(F)(F)C(F)(F)C(F)(F)C(F)(F)C(F)(F)Br [PFOB, perfluorooctylbromide] | 53 ml/100 ml (vol.-%) | ~96 h

Row | Compound | P, vapor pressure [2] | Vapor pressure [2] | Tcritical (critical solution temperature in hexane) [3] | Critical solution temperature, (Tcritical) [3] | Oxygen solubility [1] | t1/2 (elimination from the organism)
8 | perfluoromethylcyclohexylpiperidine [PFMHP] | 1 mm QS | 2.0 mm QS | 38 °C | 40 °C | 40 ml/100 ml (vol.-%) | –
9 | FC1(F)C(F)(F)C(F)(F)C2(F)C(F)(F)C(F)(F)C(F)(F)C(F)(F)C2(F)C1(F)F (stereo not drawn) [PFD, perfluorodecaline] | 12 mm QS | 12.7 mm QS | 22 °C | 22 °C | 40 ml/100 ml (vol.-%) | ~170 h
